Measurements taken from US20210015889A1, “METHODS OF DISRUPTING A BIOFILM AND/OR PREVENTING FORMATION OF SAME” (Yeda Research and Development Co. Ltd., priority 2018, published 2021).

Tests used:
Type in all cases: cell-based
P. aeruginosa [1] = experiment: P. aeruginosa biofilm formation, Crystal Violet Staining; details: for combination effect on biofilm formation / biofilm formation: P. aeruginosa; for biofilm formation: single inhibitor (FIGS. 13-14); for biofilm development: P. aeruginosa submerged biofilm, single inhibitor (FIG. 6)
Method: (§1) Crystal Violet—From each individual culture, 20 μl samples from exponential phase and 180 μl of TSB broth were dispensed in the wells of sterile 96-wells flat-bottomed microtiter plate (Nunc) and incubated at 37° C. for 24 hours. The control well contained only TSB broth without inoculation. Following incubation, unbound cells were removed by inversion of the microtiter plate, followed by vigorous tapping on an absorbent paper. Subsequently, adhered cells were fixed for 30 minutes at […]. Adhered cells were stained by addition of 220 μl of crystal violet (0.5%) for 5 minutes. The stain was removed by exhaustive washing with distilled water. The plates were then allowed to dry. In order to quantify adhered cells, 220 μl of decoloring solution (95% ethanol) was added to each well for 15 minutes. The absorption of the eluted stain was measured at 590 nm.

[2] = test system: P. aeruginosa pre-existing biofilm; experiment: P. aeruginosa pre-existing biofilm, Crystal Violet Staining; details: biofilms grown 12 hours in TSB, treated 6 hours in PBS (FIG. 8)
Method: P. aeruginosa biofilms were grown in multi-well 24 wells plates in TSB for 12 hours. Following, biofilms were treated either in PBS or PBS applied with the indicated concentrations of sodium vanadate, DTNB or AHA for 6 hours. Results are shown as intensity of crystal violet staining (OD595) compared with the initial absorbance prior to treatment.
as §1

P. aeruginosa [3] = experiment: Planktonic growth of P. aeruginosa; details: inhibitor concentrations used, data not shown
Method: (§2) Growth Analysis—To determine growth kinetics of planktonic bacteria,the cultures were grown for 15-30 hours at 30° C. in a plate reader (BioTek, Winooski, Vt., USA) and the optical density at 600 nm (OD600) was measured every 20 minutes. Results are presented as averages for 5-6 wells from a single representative experiment out of three.

P. aeruginosa [4] = experiment: Survival of P. aeruginosa biofilm after exposure to ciprofloxacin or gentamicin (CFU); details: alone or in combination (FIGS. 7 and 9)
Method: P. aeruginosa biofilms were grown in multi-well 24 wells plates in TSB for 12 hours. Following, biofilms were treated either in PBS or PBS applied with the indicated concentrations of DTNB, AHA, CIP and/or GM for 6 hours. Following treatment, the biofilms were mildly sonicated and serially diluted to assess the number of CFU within each group.

P. aeruginosa [5] = experiment: Ex vivo lung infection system (mouse lung explants infected with P. aeruginosa); details: 37° C.; for lung colonization by P. aeruginosa / lung tissue death: mouse lung explants, ~2 days (FIGS. 10D and 11); for tissue damage (Hematoxylin/eosin histology): mouse lung tissue with P. aeruginosa, 2 days
From the text: FIG. 10A is a scanning Electron Microscopy (SEM) image of biofilms of partially bleached sputum sample from P. aeruginosa positive CF patient A4, containing bleach-resistant mineralized tissue. FIG. 10B is a SEM image of biofilms of partially bleached sputum sample from P. aeruginosa positive CF patient A62 (left), accompanied by an image taken with the backscattering mode (right), containing bleach-resistant mineralized tissue. […] P. aeruginosa strain PA14 expressing GFP (green) was used to infect a lung tissue (nucleoli of lung cells were stained with DAPI—blue). Lung tissue was harvested from one month old mice and incubated in DMEM 5% FCS at 37° C. for 2 days, in the presence of P. aeruginosa, sectioned and visualized. […] Lungs were harvested from one month old mice and tissue was incubated in DMEM 5% FCS, either with or without AHA, as indicated. To each sample, either P. aeruginosa or DMEM (control) was added. Samples were incubated at 37° C. for 2 days, sectioned, stained with Hematoxylin/eosin stain and visualized.
Lungs were harvested from one month old mice and tissue was incubated in DMEM 5% FCS, either with or without DTNB, as indicated. To each sample, either P. aeruginosa or DMEM (control) was added. Samples were incubated at 37° C. for 2 days, sectioned, stained with Hematoxylin/eosin stain and visualized.
Ex vivo lung infection system—Lungs were harvested from 2 mice (one month old) and placed in petri dishes containing DMEM 5% FCS. The tissue was divided into circular pieces 4 mm in diameter with a biopsy punch and transferred to a 24 wells plate (4-5 explants/well) with 450 μl DMEM containing 100 μg/ml carbenicillin (Sigma-Aldrich) and 0, 2.5, or 5 mg/ml AHA or DTNB. To each respective well, either 50 μl DMEM (control) or P. aeruginosa pretreated with 0, 2.5, or 5 mg/ml AHA or with 0, 1, 5 or 10 mM DTNB and diluted within DMEM to attain OD600 0.373 or 0.257, respectively, were added, with three technical repeats for each condition. The plates were incubated at 37° C. for ˜2 days (48-52 hours) and washed twice with PBS, fixed with PFA 4% for 10 minutes, and embedded in either cryosection (OCT) compound or paraffin. Paraffin samples were cut into 7 micron slices and stained with H&E; whereas cryosections were cut into 10 micron slices and placed on superfrost plus slides.

B. subtilis colonies [6] = experiment: B. subtilis colony biofilm on B4 agar with Ca acetate
B. subtilis [7] = experiment: Planktonic growth (OD600) of B. subtilis in B4 medium; details: B4 medium with Ca, AHA concentrations giving smooth colonies (FIG. 3C upper)
Method: (§3) B. subtilis and M. smegmatis colonies grown on 1.5% B4 agar, supplemented with Ca acetate. FIG. 3A is a schematic representation of the biomineralization reactions leading to bicarbonate production. […] Scale bars represent 2 mm. […] DMSO served as a positive control and a medium not supplemented with Ca served as a negative control. Scale bars represent 2 mm. […] Colonies were grown in a medium supplemented with 0.025% Ca and treated with 10 mg/ml AHA. DMSO served as a positive control and a medium not supplemented with Ca served as a negative control. Scale bars represent 2 mm in the upper panels; and 0.5 mm in the lower panels.
as §2

M. smegmatis colonies = experiment: M. smegmatis colony biofilm on B4 agar with Ca acetate
[8] = test system: M. smegmatis planktonic cells; experiment: Planktonic growth (OD600) of M. smegmatis in B4 medium; details: B4 medium with Ca (FIG. 3C lower)
Method: as §3, §2

B. subtilis [9] = experiment: Pellicle biofilm model, B. subtilis in liquid B4
Method: (§4) B. subtilis (FIG. 4A) and M. smegmatis (FIG. 4B) cells were grown in liquid B4 supplemented with 0.25% and 0.025% calcium acetate, respectively, and treated with AHA at the indicated concentrations. DMSO served as a positive control and a medium not supplemented with Ca served as a negative control. The images of the top view of the wells were taken following robust pellicles formed in the DMSO control—at 3 days for B. subtilis and at 4 days for M. smegmatis.
B. subtilis cells were grown in liquid B4 supplemented with 0.25% calcium acetate and treated with AHA at the indicated concentrations. DMSO served as a positive control and a medium not supplemented with Ca served as a negative control. The images of the top view of the wells were taken following 6 days; and the weight of the mineral was determined following removal of all organic material by bleaching.
Analysis of the weight of the minerals—(A) Thermogravimetric analysis (TGA) of the B. subtilis colonies was performed as described previously [Levi-Kalisman et al., J Chem Soc Dalton (2000), 3977-3982] for at-least three colonies materials combined for each time point. The weight loss associated with the calcite relates to the temperature range 650-800° C. Results are presented as an average of at-least three independent experiments. […]

M. smegmatis = experiment: Pellicle biofilm model, M. smegmatis in liquid B4; details: liquid B4, 0.025% calcium acetate, 4 days (FIG. 4B)
Method: as §4

B. subtilis colonies [10] = experiment: FITC diffusion in colony cross-sections; details: day 3 B. subtilis colonies, 0.025% Ca, 10 mg/ml AHA, 4 hours after FITC (FIG. 3E)
Method: as §3
Imaging—All images were taken using a Nikon D3 camera or a Stereo Discovery V20″ microscope (Tochigi, Japan) with objectives Plan Apo S ×0.5 FWD 134 mm or Apo S ×1.0 FWD 60 mm (Zeiss, Goettingen, Germany) attached to a high-resolution microscopy Axiocam camera. Data were created and processed using Axiovision suite software (Zeiss). To visualize colony cross-sections, a warm low-melt agar was poured over the colony following incubation with FITC, and allowed to solidify at room temperature (RT). Following, slices were made with a razor blade and immediately visualized. All experiments were repeated at least 3 times, in technical triplicates, with similar results.

Compound | combination effect on biofilm formation (P. aeruginosa [1]; in combination with AHA (FIG. 13)) | combination effect on biofilm formation (P. aeruginosa [1]; in combination with DTNB (FIG. 14)) | biofilm formation (P. aeruginosa [1]) | biofilm development (P. aeruginosa [1]) | dispersal of pre-existing biofilm [2] | effect on planktonic growth (P. aeruginosa [3]) | sensitization to ciprofloxacin and gentamicin (P. aeruginosa [4]) | lung colonization by P. aeruginosa (P. aeruginosa [5]) | lung tissue death (P. aeruginosa [5]) | tissue damage (Hematoxylin/eosin histology) (P. aeruginosa [5]) | growth, biofilm development and biomineralization of colonies (B. subtilis colonies [6]; B. subtilis colonies on 1.5% B4 agar with Ca acetate (FIGS. 3A-E)) | colony morphology (B. subtilis colonies [6]; B. subtilis, medium with 0.25% Ca, AHA at indicated doses (FIG. 3B)) | effect on planktonic growth (B. subtilis [7]) | colony morphology (M. smegmatis colonies; 0.025% Ca, AHA concentrations tolerated by planktonic cells (FIG. 3D)) | growth, biofilm development and biomineralization (M. smegmatis colonies; inhibition of urease activity) | tolerance by planktonic cells [8] | non-soluble mineral production (B. subtilis [9]; B. subtilis pellicle, 0.25% calcium acetate, 6 days, mineral weight after bleaching (FIG. 5)) | growth, biofilm development and biomineralization in pellicle biofilm model (B. subtilis [9]; B. subtilis, liquid B4, 0.25% calcium acetate, 3 days (FIG. 4A)) | growth, biofilm development and biomineralization in pellicle biofilm model (M. smegmatis) | formation of diffusion barriers within the colony (B. subtilis colonies [10])
sodium vanadate | synergistic | synergistic | inhibited biofilm formation | – | – | – | – | – | – | – | – | – | – | – | – | – | – | – | – | –
O=C(O)c1cc(SSc2ccc([N+](=O)[O-])c(C(=O)O)c2)ccc1[N+](=O)[O-] [DTNB, 5,5′-Dithiobis (2-nitrobenzoic acid, DTNB)] | – | – | inhibited biofilm formation | impaired biofilm development | able to disperse a pre-existing P. aeruginosa biofilm | little or no effect on planktonic growth | sensitized the P. aeruginosa colonies to treatment with ciprofloxacin and gentamicin | diminished lung colonization by P. aeruginosa | prevented lung tissue death | prevents tissue damage | – | – | – | – | – | – | – | – | – | –
CC(=O)NO [AHA, acetohydroxamic acid] | – | – | inhibited biofilm formation | impaired biofilm development | able to disperse a pre-existing P. aeruginosa biofilm | little or no effect on planktonic growth | sensitized the P. aeruginosa colonies to treatment with ciprofloxacin and gentamicin | diminished lung colonization by P. aeruginosa | prevented lung tissue death | prevents tissue damage | inhibits growth, biofilm development and biomineralization | smooth colony morphology | little or no effect on planktonic growth | less wrinkled colonies | inhibited growth, biofilm development and biomineralization | well-tolerated | decreased non-soluble mineral production | inhibits growth, biofilm development and biomineralization | inhibits growth, biofilm development and biomineralization | prevented the formation of the diffusion barriers within the colony
